Assay: recombinant UMI read abundance after kanamycin selection (control-corrected) (log10(CPM+1)); higher = more efficient recombination; extreme values may be limits of the assay; sequences stand for … in AGTGCAGAGAAAATCGGCCAGTTTTCTCTGCCTGCAGTCCGCATGCCGTGGGACCCCTTGGGTTCTAACCTGTTGCCTAGATTTATGCAGCGGACTGCCTTTCTCCCAAAGTGATAAACCGG…AGGTTGGTTTCACT; site = the 11-nt donor
Description: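 Pooled E. coli donor-specificity screen for the IS621 bridge recombinase. Each library member carries a reprogrammed 11-nt donor and a full-length LE bridge RNA expressed in cis from the natural promoter, with a paired donor-binding loop (8-nt LDG + 4-nt RDG) and a target-binding loop fixed to T5. It is co-electroporated with a T5 target plasmid; recombinase is induced with 0.07 mM IPTG and recombinants are selected on kanamycin. UMIs are counted as CPM, averaged over two biological replicates and corrected by the unselected control. Molecule = full bridge RNA written as DNA, built from the T5 scaffold: LDG = donor specificity nt 1-8, RDG = reverse complement of nt 8-11.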
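Note: IS621 bridge recombinase in Escherichia coli cells against a fixed T5 target plasmid.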

Row | Sequence | recombinant UMI read abundance (log10)
1 | TCACGAACATGGACCGGTTTTCCCGGTAATCCGTATTTGTC (site TCACGAACTGA) | 0
2 | TGGTCCCCATGGACCGGTTTTCCCGGTAATCCGTATTTGTA (site TGCTCCCCTTA) | 0.176
3 | CGCTTGTCATGGACCGGTTTTCCCGGTAATCCGTATTTGCG (site CGCTTGTCTCG) | 1.46
4 | CCCTAGCCATGGACCGGTTTTCCCGGTAATCCGTATTTGCT (site CCCTAGCCTTG) | 0
5 | CTAGTACCATGGACCGGTTTTCCCGGTAATCCGTATTTGAC (site CTAGTACCTGT) | 0
6 | AGGACTACATGGACCGGTTTTCCCGGTAATCCGTATTTGCC (site AGGACTACTGC) | 0
7 | CTGCTACCATGGACCGGTTTTCCCGGTAATCCGTATTTGCT (site GTGCTACCTAG) | 0
8 | CTAGTAACATGGACCGGTTTTCCCGGTAATCCGTATTTGAG (site CTAGTAACTCT) | 2.89
9 | GAATCATCATGGACCGGTTTTCCCGGTAATCCGTATTTGCT (site GAATCATCTAG) | 1.95
10 | TGGGAACCATGGACCGGTTTTCCCGGTAATCCGTATTTGAT (site GGGGAACCTAT) | 0
11 | GCAAAAGCATGGACCGGTTTTCCCGGTAATCCGTATTTGCC (site GCAAAAGCTGG) | 0.282
12 | AGGAGTCCATGGACCGGTTTTCCCGGTAATCCGTATTTGAA (site AGGAGTCCTTT) | 1.07
13 | TGGCCGGCATGGACCGGTTTTCCCGGTAATCCGTATTTGGC (site TGCCCGGCTGC) | 0
14 | TCCAATTCATGGACCGGTTTTCCCGGTAATCCGTATTTGCC (site TACAATTCTGG) | 0
15 | CCTTAGCCATGGACCGGTTTTCCCGGTAATCCGTATTTGCC (site CCATAGCCTGG) | 0
16 | ACCAAGACATGGACCGGTTTTCCCGGTAATCCGTATTTGGG (site ACCAAGACTCC) | 0.0181
17 | AAAGAATCATGGACCGGTTTTCCCGGTAATCCGTATTTGCA (site AAAGAATCTTG) | 2.66
18 | GGGCAGGCATGGACCGGTTTTCCCGGTAATCCGTATTTGGG (site GGGCAGGCTCC) | 0.0905
19 | CGGGAACCATGGACCGGTTTTCCCGGTAATCCGTATTTGAG (site CGGGAACCTTT) | 0
20 | AGCTTAGCATGGACCGGTTTTCCCGGTAATCCGTATTTGTT (site AGCATAGCTAA) | 0.00999
21 | AGTGAGACATGGACCGGTTTTCCCGGTAATCCGTATTTGGT (site AGTGAGACTAC) | 1.21
22 | AAAGAATCATGGACCGGTTTTCCCGGTAATCCGTATTTGCA (site ACAGTATCTTG) | 0.902
23 | ACGGTATCATGGACCGGTTTTCCCGGTAATCCGTATTTGCA (site ACGGTATCTTG) | 3.16
24 | CTGCGAGCATGGACCGGTTTTCCCGGTAATCCGTATTTGCA (site CTGCGAGCTTG) | 0.942

Row | Sequence | recombinant UMI read abundance (log10)
25 | GGCAACCCATGGACCGGTTTTCCCGGTAATCCGTATTTGAA (site GGCAACCCTTT) | 0.0234
26 | ACCAAGACATGGACCGGTTTTCCCGGTAATCCGTATTTGGG (site ACCGAGACTCC) | 0.0218
27 | TTGGCGCCATGGACCGGTTTTCCCGGTAATCCGTATTTGAG (site TTGGCGCCTCT) | 0.00946
28 | TAATGAACATGGACCGGTTTTCCCGGTAATCCGTATTTGGG (site TAATGAACTCC) | 0.00333
29 | CACTCCCCATGGACCGGTTTTCCCGGTAATCCGTATTTGCC (site CACTCCACTGG) | 0
30 | CCGTTTACATGGACCGGTTTTCCCGGTAATCCGTATTTGAT (site CCGTTTACTAC) | 0
31 | GGAACGGCATGGACCGGTTTTCCCGGTAATCCGTATTTGGA (site GGAACGGCTTC) | 1.09
32 | CGACTAACATGGACCGGTTTTCCCGGTAATCCGTATTTGGA (site CGACTAACTTC) | 1.74
33 | TTGCTACCATGGACCGGTTTTCCCGGTAATCCGTATTTGCT (site ATGCTACCTAG) | 0
34 | CGGGGACCATGGACCGGTTTTCCCGGTAATCCGTATTTGAT (site CGGGTACCTAT) | 0
35 | TAATCTACATGGACCGGTTTTCCCGGTAATCCGTATTTGAG (site TAATCTACTCT) | 0.521
36 | CCTAACACATGGACCGGTTTTCCCGGTAATCCGTATTTGGC (site CCTAATACTGC) | 0
37 | TATTTGGCATGGACCGGTTTTCCCGGTAATCCGTATTTGTG (site TATCTGGCTCA) | 0.00736
38 | TATTTGGCATGGACCGGTTTTCCCGGTAATCCGTATTTGTG (site TGTTTGGCTCA) | 0.00811
39 | ATGTAGGCATGGACCGGTTTTCCCGGTAATCCGTATTTGGC (site ATATAGGCTGC) | 2.8
40 | GTAGGTCCATGGACCGGTTTTCCCGGTAATCCGTATTTGAC (site GTAGGTTCTGT) | 0
41 | TAAGATTCATGGACCGGTTTTCCCGGTAATCCGTATTTGTT (site CAAGATTCTAA) | 1.43
42 | GTGGAAACATGGACCGGTTTTCCCGGTAATCCGTATTTGCA (site ATGGAAACTTG) | 1.42
43 | CTCGGCCCATGGACCGGTTTTCCCGGTAATCCGTATTTGTT (site CCCGGCCCTAA) | 0.0244
44 | GTGCATGCATGGACCGGTTTTCCCGGTAATCCGTATTTGGT (site GTACATGCTAC) | 1.47
45 | ACTCGAACATGGACCGGTTTTCCCGGTAATCCGTATTTGTC (site ACACGAACTGA) | 0
46 | ATTGCACCATGGACCGGTTTTCCCGGTAATCCGTATTTGGT (site ATTGCACCTAC) | 0.00574
47 | AACCGTTCATGGACCGGTTTTCCCGGTAATCCGTATTTGAT (site AACCGTGCTAT) | 0.0146
48 | CGGACTACATGGACCGGTTTTCCCGGTAATCCGTATTTGAC (site AGGACTACTGT) | 0

Row | Sequence | recombinant UMI read abundance (log10)
49 | CATTTATCATGGACCGGTTTTCCCGGTAATCCGTATTTGCA (site GCCCGTCCTAC) | 0.031
50 | TGTACTGCATGGACCGGTTTTCCCGGTAATCCGTATTTGCC (site TGTACTGCTGG) | 0.865
51 | CCGAAAACATGGACCGGTTTTCCCGGTAATCCGTATTTGCT (site ACGAAAACTAG) | 0
52 | AACCGTTCATGGACCGGTTTTCCCGGTAATCCGTATTTGAT (site AACCGTTCTAT) | 0.348
53 | GTGGAAGCATGGACCGGTTTTCCCGGTAATCCGTATTTGTG (site GTGGAAGCTCA) | 2.35
54 | TAACCGGCATGGACCGGTTTTCCCGGTAATCCGTATTTGGT (site TAACCGGCTAC) | 0.35
55 | TTAGCTCCATGGACCGGTTTTCCCGGTAATCCGTATTTGTG (site TTAGCTTCTCA) | 0.0128
56 | CCTATTACATGGACCGGTTTTCCCGGTAATCCGTATTTGGC (site CCTAGTACTGC) | 0
57 | GTTTGCACATGGACCGGTTTTCCCGGTAATCCGTATTTGCA (site GTTTGCACTTG) | 0.292
58 | GACGAACCATGGACCGGTTTTCCCGGTAATCCGTATTTGGT (site GACCAACCTAC) | 0.0777
59 | CACTCGGCATGGACCGGTTTTCCCGGTAATCCGTATTTGAT (site CACTCGGCTAT) | 2.18
60 | CAGTAGACATGGACCGGTTTTCCCGGTAATCCGTATTTGTC (site CAGTAGACTGA) | 2.13
61 | GCGAAAACATGGACCGGTTTTCCCGGTAATCCGTATTTGCG (site GCGAAAACTAG) | 0
62 | ACCTTGACATGGACCGGTTTTCCCGGTAATCCGTATTTGGG (site ACCTAGACTCC) | 0.0118
63 | CATCTGACATGGACCGGTTTTCCCGGTAATCCGTATTTGCG (site CATCTGACTCG) | 1.45
64 | CAGTCCTCATGGACCGGTTTTCCCGGTAATCCGTATTTGAA (site CAGTCCTCTTT) | 1.96
65 | GTAGATTCATGGACCGGTTTTCCCGGTAATCCGTATTTGCA (site GTAGATTCTTG) | 2.86
66 | AACTCAGCATGGACCGGTTTTCCCGGTAATCCGTATTTGGG (site ACCTCAGCTCC) | 0.0111
67 | GATTGGCCATGGACCGGTTTTCCCGGTAATCCGTATTTGCA (site GAATGGCCTTG) | 0
68 | TAATGGCCATGGACCGGTTTTCCCGGTAATCCGTATTTGCA (site TAATGGCCTTG) | 0.0063
69 | CCAAATACATGGACCGGTTTTCCCGGTAATCCGTATTTGGC (site CCTAATACTGC) | 0
70 | ATTTGGGCATGGACCGGTTTTCCCGGTAATCCGTATTTGGG (site ATTTGGGCTCC) | 0.0319
71 | GTATGCACATGGACCGGTTTTCCCGGTAATCCGTATTTGTA (site GTATGCACTAA) | 0.126
72 | GCTAATGCATGGACCGGTTTTCCCGGTAATCCGTATTTGCC (site GCTATTGCTGG) | 0

From the supplement of paper PMC11208160
